According to article PMC8250858, “A Systematic Study of the Stability, Safety, and Efficacy of the de novo Designed Antimicrobial Peptide PepD2 and Its Modified Derivatives Against Acinetobacter baumannii” (Frontiers in Microbiology, 2021):

What was measured:
Hemolytic assay = type: cell-based, rat; details: rat red blood cells, 256 μg/mL peptide, 37°C 45 min; read-out: Hemolysis (%) at 256 μg/mL
Protocol: The blood cells were washed three times with PBS, where the volume of PBS was the same as that of the original blood, by gently turning the centrifuge tube upside down. After washing, ten microliters of blood cells were diluted 2,000-fold in PBS to count the cells. Finally, red blood cells were diluted to 5 × 10^8 cells/mL in PBS. Peptides were dissolved in water and filtered through a 0.2-μm filter to make a stock solution. The peptide concentration was quantitated by the UV280. The peptide solution was diluted in PBS to different concentrations (five times the tested concentrations). Twenty microliters of the peptide in PBS was mixed with 80 μL of red blood cell solution in a 96-well plate (V-bottom). The final peptide concentration was 16–256 μg/mL. In the positive control group, 20 μL of 5% Triton X-100 was added to the red blood cell solution for a final Triton X-100 concentration of 1%. For the negative control group, 20 μL of PBS solution was added. The 96-well plate was incubated at 37°C for 45 min. After centrifuging the 96-well plate at 1,500 × g for 5 min, 30 μL of the supernatant was mixed with 100 μL of deionized water in a 96-well plate (flat bottom). The concentration of heme in each well was measured by the UV405 using an Infinite M1000 pro (Tecan Austria GmbH, Austria). The hemolytic activity was calculated using the following formula. Hemolyticactivity=[(F-F0)/(Ft-F0)]×100% F is the UV405 of the peptide-treated sample F0 is the UV405 of the sample without peptide (negative control) Ft is the UV405 of the Triton-treated sample (positive control)

in vitro = in vitro ADME, rat; details: rat, plasma, rat plasma, room temperature
Protocol: EDTA-treated rat whole blood was centrifuged at 4°C and 840 × g for 5 min, and then the blood cells were removed ([[…] et al., 2019]). The supernatant was placed in an Eppendorf tube and centrifuged at 4°C and 13,000 rpm for 10 min to remove lipids (white precipitate). The supernatant was filtered through a 0.2-μm filter. The peptide was dissolved in water and filtered through a 0.2-μm filter. The peptide concentration was quantified by the UV280 to make a 1 mg/mL stock solution. […] At the indicated time, the peptide was analyzed by HPLC with a C18 column using a linear gradient of 20-65% B over 15 min. Solution A: 5% acetonitrile plus 0.1% trifluoroacetic acid in water; solution B: 0.1% trifluoroacetic acid in acetonitrile.

A. baumannii ATCC 17978 = type: cell-based, Acinetobacter baumannii; details: spotted on MHA plate, 24 h
Protocol: Following CLSI guideline M07-A11, single bacterial colonies of A. baumannii ATCC 17978 grown on Müller–Hinton agar (MHA) plates were picked and inoculated in 4 mL of Müller–Hinton broth (MHB) at 37°C and shaken at 180 rpm for 4∼6 h. The bacterial broth was diluted in the same medium to give a cell density of 1∼2 × 10^8 CFU/mL (OD600 = 0.38∼0.4 for A. baumannii) (Supplementary Figure 1; [Dillon et al., 2020]). Then, the broth was diluted 20-fold. Peptides were dissolved in water and filtered through a 0.2-μm filter to make a stock solution. The peptide concentration was quantified by the UV280. Then, the peptide solution was serially diluted in MHB to final peptide concentrations of 1, 2, 4, 8, 16, and 32 μg/mL. One hundred microliters of serially diluted peptide and 10 μL of bacterial culture were mixed in a 96-well polystyrene plate. Each well contained approximately 5 × 10^5 CFU/mL. The positive control was a mixture of 100 μL of MHB and 10 μL of the bacterial culture. The negative control was 110 μL of MHB. The plates were incubated at 37°C without shaking. […] The bacterium-peptide mixtures (the mixture without visible growth and the mixture containing a two-fold […] peptide concentration than the mixture without growth), positive control, and negative control (3 μL each) were spotted on an MHA plate and incubated at 37°C for 24 h. The MBC was determined as the lowest peptide concentration at which no colonies formed.
The MIC and MBC of our designed peptides against A. baumannii were obtained by using the broth microdilution method in the CLSI protocol. The bacterial cell number was carefully counted, and a final cell density of 5 × 10^5 CFU/mL in each well was used in the MIC test (Supplementary Figure 1). The minimal peptide concentration at which no bacterial growth was observed was taken as the MIC value. The culture after peptide treatment was spotted on an MHA plate, and the peptide concentration that could kill all the bacteria was defined as the MBC. The MIC/MBC and hemolytic activity of these peptides are shown and compared in Figure 1.

A. baumannii 17978 = assay: Time-kill kinetics assay in MHB; type: cell-based, Acinetobacter baumannii; details: 37°C with shaking, 4 μg/mL for both peptides
Protocol: FIGURE 4 Time-kill kinetics assay. […] This experiment was performed in ex vivo whole rat blood at room temperature without shaking. A. baumannii (final concentration of 10^7 CFU/mL) was incubated with or without peptide (4 μg/mL) for 60 min. At the indicated time points, an aliquot of the sample was removed and diluted, and the remaining cell number was counted by plating on MHA plates. The data are expressed as the mean ± SD. […] A. baumannii (final concentration of 10^7 CFU/mL) was incubated with or without peptide at 37°C with shaking. The peptide concentration was 4 μg/mL for both peptides.

Substance: Ac-WKKIKKIIKKIKKI-NH2 [pepI2]
- hemolysis at 45 min, 256 μg/mL (Hemolytic assay): 0.27%
- half-life at 0.6 mg/mL (in vitro): 11.2 h
- MBC A. baumannii 17978 (A. baumannii ATCC 17978): 4 µg/mL
- Killing rate compared (A. baumannii 17978): killed A. baumannii faster than colistin sulfate
